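Assay format: 96-well plates, 48-hour exposure. TGI is the concentration that stops growth completely.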

Experimental findings from PubChem BioAssay (NCI) are described below.

The subject of one assay is CAKI-1 renal. Briefly: growth of human tumour cells (NCI), 48 h.
As to `CCC[C@@H](O)C[C@@H]1CCC[C@H](C[C@@H](O)CC)N1C`, the TGI was above 100 µM.

`CC[C@@]1(C[C@H]2C[C@@]3(C(=O)OC)c4[nH]c5ccccc5c4CCN3C2=O)COC2(CCCCC2)O1` displayed a TGI above 100 µM.

For `O=C1C(=Cc2ccc(O)cc2)N=C(c2ccccc2)N1n1c(-c2ccccc2)nc2ccccc2c1=O`, the TGI is above 100 µM.

`O=C1OCC(O)=C1C(c1ccc(Cl)cc1)c1cc2c(cc1O)OCO2` (stereo not given): the TGI is above 100 µM.

The next assay deals with NCI-H23 lung. Briefly: growth of human tumour cells (NCI), 48 h.
`CCC[C@@H](O)C[C@@H]1CCC[C@H](C[C@@H](O)CC)N1C` came in with a TGI above 100 µM.

Consider `CC[C@@]1(C[C@H]2C[C@@]3(C(=O)OC)c4[nH]c5ccccc5c4CCN3C2=O)COC2(CCCCC2)O1`, for which the TGI was above 100 µM.

As to `O=C1C(=Cc2ccc(O)cc2)N=C(c2ccccc2)N1n1c(-c2ccccc2)nc2ccccc2c1=O`, the TGI was above 100 µM.

The next assay relates to SK-MEL-2 melanoma. Briefly: growth of human tumour cells (NCI), 48 h.
For `CCC[C@@H](O)C[C@@H]1CCC[C@H](C[C@@H](O)CC)N1C`, the TGI was above 100 µM.

With `CC[C@@]1(C[C@H]2C[C@@]3(C(=O)OC)c4[nH]c5ccccc5c4CCN3C2=O)COC2(CCCCC2)O1`, the TGI turned out to be 96.3 µM.

Take `O=C1OCC(O)=C1C(c1ccc(Cl)cc1)c1cc2c(cc1O)OCO2` (stereo not given): the TGI is above 100 µM.

A further assay has as its system TK-10 renal. Briefly: growth of human tumour cells (NCI), 48 h.
With `CCC[C@@H](O)C[C@@H]1CCC[C@H](C[C@@H](O)CC)N1C`, the TGI was above 100 µM.

Compound `CC[C@@]1(C[C@H]2C[C@@]3(C(=O)OC)c4[nH]c5ccccc5c4CCN3C2=O)COC2(CCCCC2)O1` showed a TGI above 100 µM.

Take `O=C1C(=Cc2ccc(O)cc2)N=C(c2ccccc2)N1n1c(-c2ccccc2)nc2ccccc2c1=O`: the TGI was above 100 µM.

As for `O=C1OCC(O)=C1C(c1ccc(Cl)cc1)c1cc2c(cc1O)OCO2` (stereo not given), the TGI is above 100 µM.

A further assay deals with MDA-MB-435. Put plainly: growth of human tumour cells (NCI), 48 h.
`CCC[C@@H](O)C[C@@H]1CCC[C@H](C[C@@H](O)CC)N1C`: the TGI is above 100 µM.

`O=C1C(=Cc2ccc(O)cc2)N=C(c2ccccc2)N1n1c(-c2ccccc2)nc2ccccc2c1=O` yielded a TGI above 100 µM.

In the case of `O=C1OCC(O)=C1C(c1ccc(Cl)cc1)c1cc2c(cc1O)OCO2` (stereo not given), the TGI is above 100 µM.

In another assay the test system is SR leukemia. Put plainly: growth of human tumour cells (NCI), 48 h.
The compound `CCC[C@@H](O)C[C@@H]1CCC[C@H](C[C@@H](O)CC)N1C` gave a TGI above 100 µM.

In turn, `CC[C@@]1(C[C@H]2C[C@@]3(C(=O)OC)c4[nH]c5ccccc5c4CCN3C2=O)COC2(CCCCC2)O1` yielded a TGI above 100 µM.

Compound `O=C1OCC(O)=C1C(c1ccc(Cl)cc1)c1cc2c(cc1O)OCO2` (stereo not given) registered a TGI above 100 µM.

The next assay deals with U251 CNS. Briefly: growth of human tumour cells (NCI), 48 h.
With `CCC[C@@H](O)C[C@@H]1CCC[C@H](C[C@@H](O)CC)N1C`, the TGI is above 100 µM.

The subject of the next assay is HCT-15 colon. Briefly: growth of human tumour cells (NCI), 48 h.
`CCC[C@@H](O)C[C@@H]1CCC[C@H](C[C@@H](O)CC)N1C` showed a TGI above 100 µM.

As to `CC[C@@]1(C[C@H]2C[C@@]3(C(=O)OC)c4[nH]c5ccccc5c4CCN3C2=O)COC2(CCCCC2)O1`, the TGI is above 100 µM.

As to `O=C1C(=Cc2ccc(O)cc2)N=C(c2ccccc2)N1n1c(-c2ccccc2)nc2ccccc2c1=O`, the TGI is above 100 µM.

In the case of `O=C1OCC(O)=C1C(c1ccc(Cl)cc1)c1cc2c(cc1O)OCO2` (stereo not given), the TGI is above 100 µM.

A further assay relates to HCC-2998 colon. Briefly: growth of human tumour cells (NCI), 48 h.
With `CCC[C@@H](O)C[C@@H]1CCC[C@H](C[C@@H](O)CC)N1C`, the TGI was above 100 µM.

Take `CC[C@@]1(C[C@H]2C[C@@]3(C(=O)OC)c4[nH]c5ccccc5c4CCN3C2=O)COC2(CCCCC2)O1`: the TGI amounted to 62.1 µM.

The compound `O=C1C(=Cc2ccc(O)cc2)N=C(c2ccccc2)N1n1c(-c2ccccc2)nc2ccccc2c1=O` showed a TGI above 100 µM.

In the case of `O=C1OCC(O)=C1C(c1ccc(Cl)cc1)c1cc2c(cc1O)OCO2` (stereo not given), the TGI was above 100 µM.

The test system of a further assay is NCI-H522 lung. Briefly: growth of human tumour cells (NCI), 48 h.
`CCC[C@@H](O)C[C@@H]1CCC[C@H](C[C@@H](O)CC)N1C` showed a TGI of 30.7 µM.

`CC[C@@]1(C[C@H]2C[C@@]3(C(=O)OC)c4[nH]c5ccccc5c4CCN3C2=O)COC2(CCCCC2)O1` had a TGI above 100 µM.

`O=C1C(=Cc2ccc(O)cc2)N=C(c2ccccc2)N1n1c(-c2ccccc2)nc2ccccc2c1=O` showed a TGI above 100 µM.

A further assay relates to SNB-19 CNS. Put plainly: growth of human tumour cells (NCI), 48 h.
Compound `CCC[C@@H](O)C[C@@H]1CCC[C@H](C[C@@H](O)CC)N1C` showed a TGI above 100 µM.

`CC[C@@]1(C[C@H]2C[C@@]3(C(=O)OC)c4[nH]c5ccccc5c4CCN3C2=O)COC2(CCCCC2)O1` gave a TGI above 100 µM.

Compound `O=C1C(=Cc2ccc(O)cc2)N=C(c2ccccc2)N1n1c(-c2ccccc2)nc2ccccc2c1=O` yielded a TGI above 100 µM.

On to `O=C1OCC(O)=C1C(c1ccc(Cl)cc1)c1cc2c(cc1O)OCO2` (stereo not given), for which the TGI was above 100 µM.

Another assay concerns IGROV1 ovarian. Briefly: growth of human tumour cells (NCI), 48 h.
In turn, `CCC[C@@H](O)C[C@@H]1CCC[C@H](C[C@@H](O)CC)N1C` returned a TGI above 100 µM.

The compound `CC[C@@]1(C[C@H]2C[C@@]3(C(=O)OC)c4[nH]c5ccccc5c4CCN3C2=O)COC2(CCCCC2)O1` gave a TGI above 100 µM.

For `O=C1C(=Cc2ccc(O)cc2)N=C(c2ccccc2)N1n1c(-c2ccccc2)nc2ccccc2c1=O`, the TGI was above 100 µM.

Turning to `O=C1OCC(O)=C1C(c1ccc(Cl)cc1)c1cc2c(cc1O)OCO2` (stereo not given), the TGI is above 100 µM.

A further assay concerns PC-3 prostate. Briefly: growth of human tumour cells (NCI), 48 h.
In turn, `CCC[C@@H](O)C[C@@H]1CCC[C@H](C[C@@H](O)CC)N1C` came in with a TGI above 100 µM.

Take `CC[C@@]1(C[C@H]2C[C@@]3(C(=O)OC)c4[nH]c5ccccc5c4CCN3C2=O)COC2(CCCCC2)O1`: the TGI is above 100 µM.

`O=C1C(=Cc2ccc(O)cc2)N=C(c2ccccc2)N1n1c(-c2ccccc2)nc2ccccc2c1=O` yielded a TGI above 100 µM.

As for `O=C1OCC(O)=C1C(c1ccc(Cl)cc1)c1cc2c(cc1O)OCO2` (stereo not given), the TGI is above 100 µM.

A further assay relates to RPMI-8226 leukemia. Briefly: growth of human tumour cells (NCI), 48 h.
Consider `CCC[C@@H](O)C[C@@H]1CCC[C@H](C[C@@H](O)CC)N1C`, for which the TGI is above 100 µM.

Turning to `O=C1C(=Cc2ccc(O)cc2)N=C(c2ccccc2)N1n1c(-c2ccccc2)nc2ccccc2c1=O`, the TGI was above 100 µM.

The subject of the next assay is MDA-MB-231 breast. Briefly: growth of human tumour cells (NCI), 48 h.
For the compound `CCC[C@@H](O)C[C@@H]1CCC[C@H](C[C@@H](O)CC)N1C`, the TGI is above 100 µM.

Turning to `CC[C@@]1(C[C@H]2C[C@@]3(C(=O)OC)c4[nH]c5ccccc5c4CCN3C2=O)COC2(CCCCC2)O1`, the TGI is above 100 µM.

Take `O=C1C(=Cc2ccc(O)cc2)N=C(c2ccccc2)N1n1c(-c2ccccc2)nc2ccccc2c1=O`: the TGI is above 100 µM.

Turning to `O=C1OCC(O)=C1C(c1ccc(Cl)cc1)c1cc2c(cc1O)OCO2` (stereo not given), the TGI was above 100 µM.
